Measured values published in patent US11207379B2, “Peptides with anti-cancer activity” (IDP DISCOVERY PHARMA, S.L., priority 2016, dated 2021).

How the values were obtained:
[1] = biological target: A549, epithelial (lung cancer); assay: Viability assay (MTT, Alamar Blue, hexosaminidase), 72 h; assay type: cell-based; settings: A549 cells, read-out: EC50
How it was run: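 A549 cells (5000/well, DMEM+10% FBS) were exposed for 72 h at 37° C. to compound, twofold serial dilutions from 100 μM, in triplicate. Viability was read consecutively by MTT (A570), Alamar Blue fluorescence and hexosaminidase activity, normalised to untreated cells. EC50 came from a variable-slope sigmoidal fit.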

MM1S cells = assay: Subcutaneous xenograft model, tumor volume and survival; assay type: in vivo, CB17-SCID immunosuppressed mice; settings: 5 mg/kg i.p. each 12 h; for Tumor Volume: in mm³ (unit assumed)
Procedure: CB17-SCID immunosuppressed mice (female) of 6-7 weeks old housed and handled in a pathogen-free zone. They were purchased from Janvier Labs. All experiments were carried out within the facilities of the University of Salamanca.
Groups Studied: • Control: Medium (PBS) i.p. each 12 hours from Monday to Friday. • S03 i.p. each 12 hours from Monday to Friday (in PBS until end point) • S04 15 mg/kg i.p. each 12 hours from Monday to Friday (in PBS until end point) • S09 5 mg/kg i.p. each 12 hours from Monday to Friday (in PBS until end point)
Subcutaneous xenoaraft model: The mice were shaved on the right flank and anesthetized by inhalation to decrease their mobility, were inoculated subcutaneously with 3×10^6 MM1S cells in 50 μl of RPMI-1640 medium and 50 μl of Corning® Matrigel® Basement Membrane Matrix. When the tumors became palpable (at 30 days), the mice were randomized into the different groups (5 mice in the control group and 4 in the remaining groups) according to the tumor volume. This was estimated by measurements with a caliper of the two tumor diameters and using the following formula of a spheroid: V=(a·b^2·π)/6, where a and b correspond to the longest and shortest diameter, respectively. Tumor volume was monitored three times per week.
Survival evaluation: Mice were sacrificed when their tumor diameter reached 2 cm. The time to reach the endpoint criterion was estimated from the day of treatment start. The statistical differences were evaluated using Kaplan-Meier curves with the log rank test. Statistical analyzes were performed using the SPSS-17.0 program.

RQRRNXLKRAFAXLRDQ-OH [IDP-S03]
EC50 [1]: 34 ± 6 µM | differences in survival with respect to the control (MM1S cells): 9.5 | tumor reduction with respect to the control (MM1S cells; at the end-time (when the control is sacrificed)): 50% | % Tumor Volume (MM1S cells; day of treatment 1 (= 100)): 100% | Tumor Volume (MM1S cells; day of treatment 1): 59.0 | % Tumor Volume (MM1S cells; day of treatment 5, relative to day 1): 193.2% | Tumor Volume (MM1S cells; day of treatment 5): 114.1 | % Tumor Volume (MM1S cells; day of treatment 10, relative to day 1): 443.9% | Tumor Volume (MM1S cells; day of treatment 10): 262.1 | % Tumor Volume (MM1S cells; day of treatment 15, relative to day 1): 661.6% | Tumor Volume (MM1S cells; day of treatment 15): 390.7 | % Tumor Volume (MM1S cells; day of treatment 19, relative to day 1): 969.5% | Tumor Volume (MM1S cells; day of treatment 19): 572.6 | % Tumor Volume (MM1S cells; day of treatment 26, relative to day 1): 2481.2% | Tumor Volume (MM1S cells; day of treatment 26): 1465.2 | Mean survival, Average (MM1S cells; from treatment start until tumor diameter 2 cm): 40.5 days
